# Earlier results in patent publication US20100292199A1 (priority 2007, published 2010).
smiles,measurement,setting,value
C[C@]12CC[C@H]3[C@@H](CCC4=CC(=O)CC[C@@]43C)[C@@H]1CC[C@@H]2O [Testosterone],solubility in ethyl alcohol,ethyl alcohol,soluble in ethyl alcohol
same,solubility in water,water,insoluble in water
